Article PMC8519022, “Diarylethene‐Based Photoswitchable Inhibitors of Serine Proteases” (Angewandte Chemie (International Ed. in English), 2021)
*1 amine or outer side, *2 acyl side, *3 side chain or, on linkers, in order; H or OH if unused. Where a SMILES comes first, the peptide text is derived from it. Bridges are numbered along the chain shown (N, C = ends). Triazole bridges read from a SMILES are 1,4-linked. [ ]: non-standard residue; d: D form. X1 = Cc1sc(C(=O)[C@@H]2CCCN2[*:2])cc1C1=C(c2cc(C(=O)[*:1])sc2C)CCC1; Orn(N3) = [N-]=[N+]=NCCC[C@H](N)C(=O)O; Aha = [N-]=[N+]=NCC[C@H](N)C(=O)O; hCys = N[C@@H](CCS)C(=O)O; Pra = C#CC[C@H](N)C(=O)O

Key:
[1] = biological target: T1, Bos taurus trypsin 1 (T1) (Bos taurus, UniProt P00760); test: Trypsin inhibition, Ki by Lineweaver-Burk analysis; settings: for K i (closed) /K i (open): ratio of ring-closed to ring-open isomer, T1;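 for all read-outs here: trypsin activity followed by spectrophotometric hydrolysis kinetics of the chromogenic substrate BAPNA in Tris buffer, Ki obtained from double-reciprocal Lineweaver–Burk plots at several substrate concentrations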
T1 sequence (P00760 24-246): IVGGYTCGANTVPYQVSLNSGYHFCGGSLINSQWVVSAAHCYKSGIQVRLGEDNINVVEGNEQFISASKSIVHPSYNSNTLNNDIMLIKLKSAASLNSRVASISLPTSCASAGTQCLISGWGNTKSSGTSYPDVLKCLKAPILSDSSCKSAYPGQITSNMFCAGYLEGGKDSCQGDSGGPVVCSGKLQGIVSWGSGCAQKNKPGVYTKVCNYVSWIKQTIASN
Protocol: Protease inhibition assays
The inhibition of trypsin and α-chymotrypsin was investigated by two methods. First, the inhibition was determined at a fixed enzyme and substrate concentration, whereas the inhibitor concentration varied. By plotting the protease activity against an inhibitor’s concentration, IC50 (the half-maximal inhibitory concentration) was determined.
Lineweaver–Burk analysis (see below), the Ki values for all peptide inhibitors were determined with high accuracy.
All measurements were performed with p-nitroaniline-based chromogenic substrates (λabs = 405 nm) in 96-well microtiter plates using
EpochTM 2 microplate spectrophotometer. For trypsin measurements the Tris buffer (50 mM Tris-HCl, 25 mM CaCl2, 0.005% Tween®
For the measurements, a fresh 0.92 µM trypsin solution was prepared from the storage aliquot and kept on ice.
A stock solution of the substrate BAPNA (Nα-Benzoyl-DL-arginine 4-nitroanilide hydrochloride) at the concentration of 50 mM in
aqueous dimethyl sulfoxide (DMSO) (100 mg of BAPNA in 4.6 mL of DMSO:water mixture 1:1) was pre pared and stored at RT.
peptide solutions at the concentration of 100 µM, which was further diluted to 10, 1, or 0.1 µM if required, were prepared in Milli-Q®
deionized ultrapure water.
For the determination of IC50, a double dilution series of inhibit ors were prepared in a 96 -well plate (12 concentrations, two repeats
for each concentration, 200 µL of Tris buffer in each well). Subsequently, a trypsin solution (20 µL, 150 nM) was added to ea ch well
with the tested peptide and to the control row. Soluti ons in each well were intensely mixed using a multichannel pipette (from lower
concentration to higher). After a pre -incubation period (5 min), the substrate BAPNA was added to each well (20 µL, 25 mM).
solutions were thoroughly mixed with the multicha nnel pipette, and the kinetics of substrate hydrolysis was recorded with an interval
of 1 min between measurements over 20 min. The total volume in each well was 240 µL, final trypsin and BAPNA concentrations
were 12.5 nM and 2.08 mM, respectively. The mea n values of the two repeats of the slope of absorption vs. time curves were
calculated. The activities at different inhibitor concentrations were then calculated by taking the control curves’ slope val ues (no
inhibitor) as the 100% enzyme activity. The inh ibition activity IC 50 against α-chymotrypsin (α-chymotrypsin from bovine pancreas
type II) was measured in the same way except that a different substrate, Ac-EAPF-pNA (Ac-Glu-Ala-Pro-Phe-pNA), was used (20
Inhibitory constants Ki were determined by Lineweaver-Burk (LWB) double-reciprocal analysis according to a published protocol.[S5]
Briefly, a fresh inhibitor/enzyme mixture was prepared in a glass vial and distributed to 2x6 wells (200 µL in each well, enzyme
concentration after dilution 12 nM). An enzyme without an inhibitor was added to the control wells. Aliquots of varying substrate stock
solutions were added with a multichannel pipette to each well. For trypsin inhibition experiments, BAPNA (20 µL per well of 20, 22.7,
26, 29.8, 34, 40 mM) and for α-chymotrypsin Ac-EAPF-pNA (20 µL per well of 16, 12.48, 10, 8, 6.4, 5.44 mM) were used, respectively.
Well contents were thoroughly mixed using a multichannel pipette, and a plate reader was used to monitor the hydrolysis kinetics
(sampling interval of 1 min over 20 min).

trypsin = biological target: T2, trypsin (Bos taurus, UniProt P00760); settings: for k H [M^−1 s^−1] (closed): pH 8.2
T2 sequence (P00760 24-246): T1 sequence (P00760 24-246)
Protocol: Analysis of the proteolytic stability
Proteolytic stability of the peptides was characterized by determining hydrolysis rates (kH) by the action of trypsin in a 50 mM Tris–
HCl buffer, pH 8.2, supplemented with 25 mM CaCl2 and 0.005% Tween®20 at 22°C. The peptides at a concentration of 50 μM were
mixed with trypsin (0.5 μM) in a 2 mL total volume. At selected time intervals, 70 μL samples of the mixture were taken, quenched
by addition 130 μL 2% aqueous formic acid, and immediately analyzed by analytical HPLC. The kH values were calculated from the
time-dependent data assuming zero-order kinetics (zero-order kinetics applies due to the high substrate/enzyme ratio of 100 to 1).
For the fitting the linear part of the hydrolysis curve was taken excluding the last time point in which the entire peptide inhibitor was
analogues could hydrolyze at two positions: at the Lys (P1 position) of the inhibitory loop and after the stabilizing loop’s arginine
residue (P4 position).[S6] The ultimate product (i.e., cleaved at both positions) had, therefore, a MALDI-TOF-MS detectable mass
The identity of each peak was confirmed by MALDI -TOF-MS. Detection – 220 nm, hydrolysis time is indicated at each chromatogram.

[2] = Photostationary state under UV irradiation / photoconversion; format: physicochemical; settings: deoxygenated water, 22 °C, continuous UV irradiation 320-400 nm; values with * by RP-HPLC
Protocol: Table S3 Photostationary states (PSS) for the studied peptides in deoxygenated water at 22 °C determined as the maximal conversion of the ring-open form to
ring-closed form under continuous UV irradiation (spectral range of 320-400 nm).
* As was determined by RP-HPLC analysis. […]

Compound	Ki ([1]; K i [nM] (open))	Ki ([1]; K i [nM] (closed))	k H (closed) /k H (open) (trypsin)	k H [M^−1 s^−1] (closed) (trypsin)	K i (closed) /K i (open) [1]	PSS, % (maximal conversion of ring-open to ring-closed form) [2]
CC[C@H](C)[C@@H]1NC(=O)[C@@H]2CCCN2C(=O)[C@@H]2CCCN2C(=O)[C@H]([C@@H](C)CC)NC(=O)[C@H](CO)NC(=O)[C@H](CCCCN)NC(=O)[C@H]([C@@H](C)O)NC(=O)[C@@H]2CSSC[C@H](NC1=O)C(=O)N[C@@H](CCCNC(=N)N)C(=O)N1CCC[C@H]1C(=O)c1cc(c(C)s1)C1=C(CCC1)c1cc(sc1C)C(=O)N[C@@H](Cc1ccccc1)C(=O)N2 [Peptide S1i] (FCTKSIPPICR; disulfide 2-10; linker N-C via X1)	13.4 ± 1.4 nM	–	–	–	–	–
CC[C@H](C)[C@@H]1NC(=O)[C@@H]2CCCN2C(=O)[C@@H]2CCCN2C(=O)[C@H]([C@@H](C)CC)NC(=O)[C@H](CO)NC(=O)[C@H](CCCCN)NC(=O)[C@H]([C@@H](C)O)NC(=O)[C@@H]2CSSC[C@H](NC1=O)C(=O)N[C@@H](Cc1ccccc1)C(=O)N1CCC[C@H]1C(=O)c1cc(c(C)s1)C1=C(CCC1)c1cc(sc1C)C(=O)N[C@@H](CCCNC(=N)N)C(=O)N2 [Peptide S1n] (RCTKSIPPICF; disulfide 2-10; linker N-C via X1)	4.9 ± 0.3 nM	–	–	–	–	–
CC[C@H](C)[C@@H]1NC(=O)[C@@H]2CCCN2C(=O)[C@@H]2CCCN2C(=O)[C@H]([C@@H](C)CC)NC(=O)[C@H](CO)NC(=O)[C@H](CCCCN)NC(=O)[C@H]([C@@H](C)O)NC(=O)[C@H](C)NC(=O)c2cc(c(C)s2)C2=C(CCC2)c2cc(sc2C)C(=O)[C@@H]2CCCN2C(=O)[C@H](C)NC1=O [Peptide S3] (ATKSIPPIA; linker N-C via X1)	101 ± 9 nM	–	–	–	–	–
CC[C@H](C)[C@@H]1NC(=O)[C@@H]2CCCN2C(=O)[C@@H]2CCCN2C(=O)[C@H]([C@@H](C)CC)NC(=O)[C@H](CO)NC(=O)[C@H](CCCCN)NC(=O)[C@H]([C@@H](C)O)NC(=O)c2cc(c(C)s2)C2=C(CCC2)c2cc(sc2C)C(=O)[C@@H]2CCCN2C1=O [Peptide S4] (TKSIPPI; linker N-C via X1)	22 ± 3 nM	–	–	–	–	–
CC[C@H](C)[C@@H]1NC(=O)[C@@H]2CCCN2C(=O)[C@@H]2CCCN2C(=O)[C@H]([C@@H](C)CC)NC(=O)[C@H](CO)NC(=O)[C@H](CCCCN)NC(=O)[C@H]([C@@H](C)O)NC(=O)[C@@H]2CSSCC[C@H](NC1=O)C(=O)N[C@@H](CCCNC(=N)N)C(=O)N1CCC[C@H]1C(=O)c1cc(c(C)s1)C1=C(CCC1)c1cc(sc1C)C(=O)N[C@@H](Cc1ccccc1)C(=O)N2 [Peptide S5i] (FCTKSIPPI[hCys]R; disulfide 2-10; linker N-C via X1)	102 ± 14 nM	182 ± 16 nM	1.7	5.0±0.8×10^−3 M^−1 s^−1	–	–
CC[C@H](C)[C@@H]1NC(=O)[C@@H]2CCCN2C(=O)[C@@H]2CCCN2C(=O)[C@H]([C@@H](C)CC)NC(=O)[C@H](CO)NC(=O)[C@H](CCCCN)NC(=O)[C@H]([C@@H](C)O)NC(=O)[C@@H]2CSSCC[C@H](NC1=O)C(=O)N[C@@H](Cc1ccccc1)C(=O)N1CCC[C@H]1C(=O)c1cc(c(C)s1)C1=C(CCC1)c1cc(sc1C)C(=O)N[C@@H](CCCNC(=N)N)C(=O)N2 [Peptide S5n] (RCTKSIPPI[hCys]F; disulfide 2-10; linker N-C via X1)	95 ± 6 nM	231 ± 14 nM	13.6	3.4±0.5×10^−2 M^−1 s^−1	–	–
CC[C@H](C)[C@@H]1NC(=O)[C@@H]2CCCN2C(=O)[C@@H]2CCCN2C(=O)[C@H]([C@@H](C)CC)NC(=O)[C@H](CO)NC(=O)[C@H](CCCCN)NC(=O)[C@H]([C@@H](C)O)NC(=O)[C@@H]2Cc3cn(nn3)CC[C@H](NC1=O)C(=O)N[C@@H](CCCNC(=N)N)C(=O)N1CCC[C@H]1C(=O)c1cc(c(C)s1)C1=C(CCC1)c1cc(sc1C)C(=O)N[C@@H](Cc1ccccc1)C(=O)N2 [Peptide S6i] (F[Pra]TKSIPPI[Aha]R; triazole 2-10; linker N-C via X1)	441 ± 43 nM	–	5.8	1.1±0.2×10^−1 M^−1 s^−1	17.5	39.6%
CC[C@H](C)[C@@H]1NC(=O)[C@@H]2CCCN2C(=O)[C@@H]2CCCN2C(=O)[C@H]([C@@H](C)CC)NC(=O)[C@H](CO)NC(=O)[C@H](CCCCN)NC(=O)[C@H]([C@@H](C)O)NC(=O)[C@@H]2Cc3cn(nn3)CC[C@H](NC1=O)C(=O)N[C@@H](Cc1ccccc1)C(=O)N1CCC[C@H]1C(=O)c1cc(c(C)s1)C1=C(CCC1)c1cc(sc1C)C(=O)N[C@@H](CCCNC(=N)N)C(=O)N2 [Peptide S6n] (R[Pra]TKSIPPI[Aha]F; triazole 2-10; linker N-C via X1)	135 ± 8 nM	–	3.7	2.5±0.8×10^−2 M^−1 s^−1	8.3	46.6%
CC[C@H](C)[C@@H]1NC(=O)[C@@H]2CCCN2C(=O)[C@@H]2CCCN2C(=O)[C@H]([C@@H](C)CC)NC(=O)[C@H](CO)NC(=O)[C@H](CCCCN)NC(=O)[C@H]([C@@H](C)O)NC(=O)[C@@H]2Cc3cn(nn3)CCC[C@H](NC1=O)C(=O)N[C@@H](CCCNC(=N)N)C(=O)N1CCC[C@H]1C(=O)c1cc(c(C)s1)C1=C(CCC1)c1cc(sc1C)C(=O)N[C@@H](Cc1ccccc1)C(=O)N2 [Peptide S7i] (F[Pra]TKSIPPI[Orn(N3)]R; triazole 2-10; linker N-C via X1)	263 ± 30 nM	7220 ± 360 nM	73	5.5±1×10^−1 M^−1 s^−1	–	–
CC[C@H](C)[C@@H]1NC(=O)[C@@H]2CCCN2C(=O)[C@@H]2CCCN2C(=O)[C@H]([C@@H](C)CC)NC(=O)[C@H](CO)NC(=O)[C@H](CCCCN)NC(=O)[C@H]([C@@H](C)O)NC(=O)[C@@H]2Cc3cn(nn3)CCC[C@H](NC1=O)C(=O)N[C@@H](Cc1ccccc1)C(=O)N1CCC[C@H]1C(=O)c1cc(c(C)s1)C1=C(CCC1)c1cc(sc1C)C(=O)N[C@@H](CCCNC(=N)N)C(=O)N2 [Peptide S7n] (R[Pra]TKSIPPI[Orn(N3)]F; triazole 2-10; linker N-C via X1)	63.4 ± 4.4 nM	2200 ± 214 nM	30.5	6.1±1.2×10^−2 M^−1 s^−1	–	–
CC[C@H](C)[C@@H]1NC(=O)[C@@H]2CCCN2C(=O)[C@@H]2CCCN2C(=O)[C@H]([C@@H](C)CC)NC(=O)[C@H](CO)NC(=O)[C@H](CCCCN)NC(=O)[C@H]([C@@H](C)O)NC(=O)[C@@H]2CSSC[C@H](NC1=O)C(=O)N[C@@H](Cc1ccccc1)C(=O)N1CCC[C@H]1C(=O)c1cc(c(C)s1)C1=C(CCC1)c1cc(sc1C)C(=O)N[C@@H](C(C)C)C(=O)N[C@@H](CCCNC(=N)N)C(=O)N2 [Peptide S8n] (VRCTKSIPPICF; disulfide 3-11; linker N-C via X1)	5.2 ± 0.4 nM	125 ± 8 nM	4.1	5.3±1.4×10^−4 M^−1 s^−1	–	–
CC[C@H](C)[C@@H]1NC(=O)[C@@H]2CCCN2C(=O)[C@@H]2CCCN2C(=O)[C@H]([C@@H](C)CC)NC(=O)[C@H](CO)NC(=O)[C@H](CCCCN)NC(=O)[C@H]([C@@H](C)O)NC(=O)[C@@H]2CSSC[C@H](NC1=O)C(=O)N[C@@H](Cc1ccccc1)C(=O)N[C@@H](CC(C)C)C(=O)N1CCC[C@H]1C(=O)c1cc(c(C)s1)C1=C(CCC1)c1cc(sc1C)C(=O)N[C@@H](CCCNC(=N)N)C(=O)N2 [Peptide S9n] (RCTKSIPPICFL; disulfide 2-10; linker N-C via X1)	8.3 ± 0.6 nM	55 ± 3.8 nM	8.7	1.3±0.1×10^−3 M^−1 s^−1	–	–
CC[C@H](C)[C@@H]1NC(=O)[C@@H]2CCCN2C(=O)[C@@H]2CCCN2C(=O)[C@H]([C@@H](C)CC)NC(=O)[C@H](CO)NC(=O)[C@H](CCCCN)NC(=O)[C@H]([C@@H](C)O)NC(=O)[C@@H]2Cc3cn(nn3)CC[C@H](NC1=O)C(=O)N[C@@H](CCCNC(=N)N)C(=O)N[C@@H](CC(C)C)C(=O)N1CCC[C@H]1C(=O)c1cc(c(C)s1)C1=C(CCC1)c1cc(sc1C)C(=O)N[C@@H](C(C)C)C(=O)N[C@@H](Cc1ccccc1)C(=O)N2 [Peptide S11i] (VF[Pra]TKSIPPI[Aha]RL; triazole 3-11; linker N-C via X1)	1720 ± 130 nM	–	3.3	9.1±1×10^−2 M^−1 s^−1	3.1	80.2%
CC[C@H](C)[C@@H]1NC(=O)[C@@H]2CCCN2C(=O)[C@@H]2CCCN2C(=O)[C@H]([C@@H](C)CC)NC(=O)[C@H](CO)NC(=O)[C@H](CCCCN)NC(=O)[C@H]([C@@H](C)O)NC(=O)[C@@H]2Cc3cn(nn3)CCC[C@H](NC1=O)C(=O)N[C@@H](CCCNC(=N)N)C(=O)N[C@@H](CC(C)C)C(=O)N1CCC[C@H]1C(=O)c1cc(c(C)s1)C1=C(CCC1)c1cc(sc1C)C(=O)N[C@@H](C(C)C)C(=O)N[C@@H](Cc1ccccc1)C(=O)N2 [Peptide S12i] (VF[Pra]TKSIPPI[Orn(N3)]RL; triazole 3-11; linker N-C via X1)	2440 ± 215 nM	–	3.0	4.2±0.4×10^−2 M^−1 s^−1	–	–
